In ChEMBL document CHEMBL1156328, “Synthesis of cycloalkane-annelated 3-phenylsulfonyl-pyrazolo[1,5-a]pyrimidines and their evaluation as 5-HT6 receptor antagonists” (Bioorg Med Chem Lett, 2010) one finds IC50, Activity and inhibition data, which are given here for 5 molecules.

Calls of active or inactive are those of the source. The rule behind the calls is not given here.

For series [1], the target named is 5-hydroxytryptamine receptor 6 (Homo sapiens, UniProt P50406). Put plainly: Antagonist activity at human 5HT6 receptor in HEK293 cells assessed as inhibition of serotonin-induced cAMP accumulation pretreated for 15 mins before serotonin challenge measured after 30 mins. The series is classed as functional, cell-based. On the technique in general: Cyclic AMP is a second messenger, typically raised through Gs and lowered through Gi signalling.

In series [2] the target is T1, 5-hydroxytryptamine receptor 2B (Homo sapiens, UniProt P41595). Put plainly: Agonist activity at human 5HT2B receptor in HEK293 cells assessed as stimulation of intracellular calcium mobilization by Fura-2AM dye based spectrofluorimetry. Background: A change in cytosolic calcium serves as a functional read-out for many receptors and channels.
The target of series [3] is T1, 5-hydroxytryptamine receptor 2B. The experiment in a line: Antagonist activity at human 5HT2B receptor in HEK293 cells assessed as inhibition of alpha-ME-5-HT-induced intracellular calcium mobilization pretreated for 15 secs before alphaME-5-HT addition by Fura-2AM dye based spectrofluorimetry.
The target in series [4] is hERG (KCNH2) (Homo sapiens, UniProt Q12809). The experiment in a line: Inhibition of human recombinant ERG at 10 uM by patch clamp assay. The following applies: recombinant human ERG channel. (The patch-clamp technique gives a direct electrical read-out from membranes.)

A word on the IC50: it is the concentration that inhibits the measured activity by half. The inhibition is the percentage by which the read-out fell short of the control.

T1 sequence (P41595 whole entry): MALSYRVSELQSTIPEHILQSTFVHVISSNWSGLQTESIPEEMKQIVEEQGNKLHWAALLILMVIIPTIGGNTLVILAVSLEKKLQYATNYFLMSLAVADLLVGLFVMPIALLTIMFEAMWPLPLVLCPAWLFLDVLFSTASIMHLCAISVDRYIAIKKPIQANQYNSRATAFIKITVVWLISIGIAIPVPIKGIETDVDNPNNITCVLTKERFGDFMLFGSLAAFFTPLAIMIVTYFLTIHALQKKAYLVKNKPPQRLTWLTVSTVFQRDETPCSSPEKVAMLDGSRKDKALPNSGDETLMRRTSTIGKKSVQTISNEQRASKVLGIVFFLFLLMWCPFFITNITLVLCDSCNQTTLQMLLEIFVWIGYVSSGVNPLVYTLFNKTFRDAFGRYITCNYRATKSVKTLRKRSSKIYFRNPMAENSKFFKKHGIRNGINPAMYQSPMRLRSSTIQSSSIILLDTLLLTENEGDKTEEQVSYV
Chain of 5-hydroxytryptamine receptor 6 (P50406 whole entry): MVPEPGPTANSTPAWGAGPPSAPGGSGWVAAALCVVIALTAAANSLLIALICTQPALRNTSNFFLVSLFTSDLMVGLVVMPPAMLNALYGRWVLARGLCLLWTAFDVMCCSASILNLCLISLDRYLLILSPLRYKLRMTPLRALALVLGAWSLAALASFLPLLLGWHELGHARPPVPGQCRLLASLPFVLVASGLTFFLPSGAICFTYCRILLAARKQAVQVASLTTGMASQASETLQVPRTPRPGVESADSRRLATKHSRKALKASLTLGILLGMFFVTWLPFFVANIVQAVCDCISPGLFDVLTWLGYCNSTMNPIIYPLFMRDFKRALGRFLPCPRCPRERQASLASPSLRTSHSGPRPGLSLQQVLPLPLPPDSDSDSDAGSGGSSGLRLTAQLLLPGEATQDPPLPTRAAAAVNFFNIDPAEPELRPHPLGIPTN
Chain of hERG (KCNH2) (Q12809 whole entry): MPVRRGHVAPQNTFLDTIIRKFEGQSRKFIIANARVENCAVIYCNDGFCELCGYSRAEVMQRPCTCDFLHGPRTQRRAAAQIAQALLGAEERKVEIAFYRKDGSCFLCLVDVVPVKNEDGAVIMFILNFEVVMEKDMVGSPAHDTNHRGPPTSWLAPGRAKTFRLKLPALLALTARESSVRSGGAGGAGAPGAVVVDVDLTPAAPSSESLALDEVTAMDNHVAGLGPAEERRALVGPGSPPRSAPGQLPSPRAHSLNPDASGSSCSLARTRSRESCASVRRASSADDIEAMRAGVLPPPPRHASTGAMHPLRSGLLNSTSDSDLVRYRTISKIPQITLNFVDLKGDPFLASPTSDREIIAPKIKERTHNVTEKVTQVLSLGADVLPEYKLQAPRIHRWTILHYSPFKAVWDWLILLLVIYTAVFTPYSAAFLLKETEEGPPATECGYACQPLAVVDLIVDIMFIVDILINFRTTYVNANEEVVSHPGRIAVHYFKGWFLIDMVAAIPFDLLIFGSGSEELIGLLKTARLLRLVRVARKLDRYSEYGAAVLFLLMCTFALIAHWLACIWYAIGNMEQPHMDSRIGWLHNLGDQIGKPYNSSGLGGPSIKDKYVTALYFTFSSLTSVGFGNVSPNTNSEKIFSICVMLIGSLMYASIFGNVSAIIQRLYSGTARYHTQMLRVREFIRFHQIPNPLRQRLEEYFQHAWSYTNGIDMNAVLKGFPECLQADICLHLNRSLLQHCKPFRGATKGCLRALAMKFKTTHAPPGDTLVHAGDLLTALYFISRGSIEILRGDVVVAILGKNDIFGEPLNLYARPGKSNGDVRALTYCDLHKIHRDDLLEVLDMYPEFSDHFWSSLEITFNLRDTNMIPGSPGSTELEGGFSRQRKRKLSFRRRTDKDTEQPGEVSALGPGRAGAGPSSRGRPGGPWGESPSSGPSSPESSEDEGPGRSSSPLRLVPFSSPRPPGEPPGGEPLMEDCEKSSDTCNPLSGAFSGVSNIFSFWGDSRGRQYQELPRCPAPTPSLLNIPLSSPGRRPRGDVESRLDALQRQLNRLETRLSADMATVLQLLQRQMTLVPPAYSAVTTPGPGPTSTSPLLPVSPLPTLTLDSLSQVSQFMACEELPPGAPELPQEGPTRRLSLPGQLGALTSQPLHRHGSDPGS

As for `CSc1nn2cc3c(nc2c1S(=O)(=O)c1ccccc1)CCCC3`, the IC50 in series [1] turned out to be 98.5 nM.
With `CSc1nn2c3c(cnc2c1S(=O)(=O)c1ccccc1)CCCC3`, the outcome in series [2] was inactive. The IC50 in series [1] was 7.5 nM; in series [3], 411 nM.
The matching figures for `CSc1nn2c3c(cnc2c1S(=O)(=O)c1ccccc1)CCC3`: “inactive”, 6 nM and 118 nM.
As to `CSc1nn2c(C)c3c(nc2c1S(=O)(=O)c1ccccc1)CCCC3`, the outcome in series [2] was inactive. In series [4], the inhibition at 10 µM stood at 25%. Also, the IC50 in series [3] worked out at 127 nM.
`CSc1nn2c3c(c(C)nc2c1S(=O)(=O)c1ccccc1)CCCC3`: in series [2], the outcome was inactive. For the same molecule, the IC50 was determined as 16.8 nM in series [1] and 161 nM in series [3].
